# Test results reported in patent publication US7531543B2, “Phenylpiperazine cycloalkanol derivatives and methods of their use” (Wyeth, priority 2003, dated 2009).
# Where a name gives a salt, the structure may show the parent alone.
# Molecular target: T1, human hNET (Homo sapiens, UniProt P23975)
# T1 construct: expressed in transfected cells; host or cells: MDCK-Net6 (MDCK cells stably transfected with hNET)
# Test: Norepinephrine (NE) uptake assay in MDCK-Net6 cells
# Type: cell-based
# Settings: [3H]NE uptake, MDCK-Net6 cells stably transfected with hNET; for EC50: test range 1 to 10,000 nM; for inhibition at 1 µM: 1 μM test compound
# Description: MDCK-Net6 cells, stably transfected with human hNET (Pacholczyk, T., R. D. Blakely, and S. G. Amara, Nature, 1991, 350(6316): p. 350-4) were cultured in growth medium containing high glucose DMEM (Gibco, Cat. No. 11995), 10% FBS (dialyzed, heat-inactivated, US Bio-Technologies, Lot FBD1129HI) and 500 µg/ml G418 (Gibco, Cat. No. 10131). Cells were plated at 300,000/T75 flask and cells were split twice weekly. The JAR cell line (human placental choriocarcinoma) was purchased from ATCC (Cat. No. HTB-144). The cells were cultured in growth medium containing RPMI 1640 (Gibco, Cat. No. 72400), 10% FBS (Irvine, Cat. No. 3000), 1% sodium pyruvate (Gibco, Cat. No. 1136) and 0.25% glucose. Cells were plated at 250,000 cells/T75 flask and split twice weekly. For all assays, cells were plated in Wallac 96-well sterile plates (PerkinElmer, Cat. No. 3983498).
# Norepinephrine (NE) Uptake Assay
# On day 1, cells were plated at 3,000 cells/well in growth medium and maintained in a cell incubator (37° C., 5% CO2). On day 2, growth medium was replaced with 200 μl of assay buffer (25 mM HEPES; 120 mM NaCl; 5 mM KCl; 2.5 mM CaCl2; 1.2 mM MgSO4; 2 mg/ml glucose (pH 7.4, 37° C.)) containing 0.2 mg/ml ascorbic acid and 10 μM pargyline. Plates containing cells with 200 μl of assay buffer were equilibrated for 10 minutes at 37° C. prior to addition of compounds. A stock solution of desipramine was prepared in DMSO (10 mM) and delivered to triplicate wells containing cells for a final test concentration of 1 μM. Data from these wells were used to define non-specific NE uptake (minimum NE uptake). Test compounds were prepared in DMSO (10 mM) and diluted in assay buffer according to test range (1 to 10,000 nM). Twenty-five microliters of assay buffer (maximum NE uptake) or test compound were added directly to triplicate wells containing cells in 200 μl of assay buffer. The cells in assay buffer with test compounds were incubated for 20 minutes at 37° C. To initiate the NE uptake, [^3H]NE diluted in assay buffer (120 nM final assay concentration) was delivered in 25 μl aliquots to each well and the plates were incubated for 5 minutes (37° C.). The reaction was terminated by decanting the supernatant from the plate. The plates containing cells were washed twice with 200 μl assay buffer (37° C.) to remove free radioligand. The plates were then inverted, left to dry for 2 minutes, then reinverted and air-dried for an additional 10 minutes. The cells were lysed in 25 μl of 0.25 N NaOH solution (4° C.), placed on a shake table and vigorously shaken for 5 minutes. After cell lysis, 75 μl of scintillation cocktail was added to each well and the plates were sealed with film tape. The plates were returned to the shake table and vigorously shaken for a minimum of 10 minutes to ensure adequate partitioning of organic and aqueous solutions. The plates were counted in a Wallac Microbeta counter (PerkinElmer) to collect the raw cpm data.
# For each experiment, a data stream of cpm values collected from the Wallac Microbeta counter was downloaded to a Microsoft Excel statistical application program. Calculations of EC50 values were made using the transformed-both-sides logistic dose response program written by Wyeth Biometrics Department. The statistical program uses mean cpm values from wells representing maximum binding or uptake (assay buffer) and mean cpm values from wells representing minimum binding or uptake ((1 μM desipramine (hNET) or 1 μM paroxetine (hSERT)). Estimation of the EC50 value was completed on a log scale and the line was fit between the maximum and minimum binding or uptake values. All graphic data representation was generated by normalizing each data point to a mean percent based on the maximum and minimum binding or uptake values. The EC50 values reported from multiple experiments were calculated by pooling the raw data from each experiment and analyzing the pooled data as one experiment.
# T1 sequence (P23975 whole entry): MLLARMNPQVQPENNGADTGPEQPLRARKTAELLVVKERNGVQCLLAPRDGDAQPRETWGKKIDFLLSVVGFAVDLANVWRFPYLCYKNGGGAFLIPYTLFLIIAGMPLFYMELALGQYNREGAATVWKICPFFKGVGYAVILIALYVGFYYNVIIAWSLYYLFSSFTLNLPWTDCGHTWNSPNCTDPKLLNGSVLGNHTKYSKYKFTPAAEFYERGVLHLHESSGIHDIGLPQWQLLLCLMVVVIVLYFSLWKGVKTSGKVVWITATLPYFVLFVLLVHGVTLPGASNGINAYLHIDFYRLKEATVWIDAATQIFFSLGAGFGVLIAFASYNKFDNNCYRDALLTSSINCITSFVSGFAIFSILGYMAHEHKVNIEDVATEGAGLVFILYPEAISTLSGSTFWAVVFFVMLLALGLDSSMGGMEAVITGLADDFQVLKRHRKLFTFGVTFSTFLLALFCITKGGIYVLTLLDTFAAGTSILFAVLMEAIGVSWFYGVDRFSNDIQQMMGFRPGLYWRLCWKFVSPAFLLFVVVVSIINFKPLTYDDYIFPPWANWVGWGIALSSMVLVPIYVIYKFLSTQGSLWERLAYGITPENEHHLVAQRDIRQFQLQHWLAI
EC50,inhibition at 1 µM,Structure (SMILES)
–,42%,"CN1CCN(CC(c2cccc(Cl)c2)C2(O)CCCCCCC2)CC1 (centres unmarked) [Example 39, 1-[1-(3-chlorophenyl)-2-(4-methylpiperazin-1-yl)ethyl]cyclooctanol dihydrochloride]"
–,44%,"CN1CCN(CC(c2cccc(Br)c2)C2(O)CCCCCCC2)CC1 (centres unmarked) [Example 40, 1-[1-(3-bromophenyl)-2-(4-methylpiperazin-1-yl)ethyl]cyclooctanol dihydrochloride]"
–,48%,"COc1ccc(C(CN2CCN(C)CC2)C2(O)CCCCCCC2)cc1Br (centres unmarked) [Example 41, 1-[1-(3-bromo-4-methoxyphenyl)-2-(4-methylpiperazin-1-yl)ethyl]cyclooctanol dihydrochloride]"

# The next lines start with the compound.
Structure (SMILES),EC50,inhibition at 1 µM
"OC1([C@H](CN2CCNCC2)c2cccc(Cl)c2)CCCCC1 [Example 34, 1-[(1S)-1-(3-chlorophenyl)-2-piperazin-1-ylethyl]cyclohexanol dihydrochloride]",25 nM,–
"OC1([C@@H](CN2CCNCC2)c2cccc(Cl)c2)CCCCC1 [Example 35, 1-[(1R)-1-(3-chlorophenyl)-2-piperazin-1-ylethyl]cyclohexanol dihydrochloride]",540 nM,–
"OC1(C(CN2CCNCC2)c2cccc(Cl)c2)CCCCCCC1 (centres unmarked) [Example 36, 1-[1-(3-chlorophenyl)-2-piperazin-1-ylethyl]cyclooctanol dihydrochloride]",–,28%
"OC1(C(CN2CCNCC2)c2cccc(Br)c2)CCCCCCC1 (centres unmarked) [Example 37, 1-[1-(3-bromophenyl)-2-piperazin-1-ylethyl]cyclooctanol dihydrochloride]",–,28%
"COc1ccc(C(CN2CCNCC2)C2(O)CCCCCCC2)cc1Br (centres unmarked) [Example 38, 1-[1-(3-bromo-4-methoxyphenyl)-2-piperazin-1-ylethyl]cyclooctanol dihydrochloride]",–,42%
